A word on the GI50: it is the concentration that inhibits growth by half.

Like-named read-outs stand apart in the source and are kept apart here.

For assay [1], the system named is DMS 114. As to the kind of experiment: NCI human tumor in vitro primary screen. The assay is classed as cell-based. The conditions noted are these: small cell lung cancer.
For assay [2], the system named is DMS 273. Nature of the assay: NCI human tumor in vitro primary screen. The assay is classed as cell-based. The conditions noted are these: small cell lung cancer.
Setting [3] is: read-out: Log10 GI50 (converted).
The mark [4] stands for this setting: read-out: Log10 TGI (converted).
Where [5] appears, read: read-out: averaged negative log10 GI50 (converted).

Regarding `C=C1CC2CCC34CC5OC6C(O3)C3OC(CCC3OC6(O)C5O4)CC(=O)OC3C(CC4OC(CCC1O2)CC(C)C4=C)OC1CC2OC4(CC2OC1C3C)CC1OC2(CC(C)C3OC5CC(C(O)CO)OC5CC3O2)CC(C)C1O4` (stereo not drawn) [halistatin 2], the concentration for 50% growth inhibition (GI50) was 0.339 nM in assay [1] (setting [3]), 0.339 nM in assay [1] (setting [5]), 0.129 nM in assay [2] (setting [3]) and 0.129 nM in assay [2] (setting [5]). Moreover, the IC (TGI) in assay [1] (setting [4]) was 1.91 nM; in assay [2] (setting [4]), 5.5 nM.

(Values after patent US5352804A, “Isolation and structure of Halistatin 2” (Arizona Board of Regents, a body corporate, acting on …, priority 1993, dated 1994).)
